Laboratory results: patent US9610285B2, “Compositions for controlling food intake and uses therefor” (UNIVERSITY OF FLORIDA RESEARCH FOUNDATION, INCORPORATED, priority 2011, dated 2017)
Structures can show the parent of a compound that is named as a salt. Marks after values point to notes of the source that are not given here.

Legend:
Type in all cases: in vivo, rat
[1] = test system: Male Sprague-Dawley rats; test: Palatable food intake following drug injections in binge-eating rats (Example 2); details: for Effect on palatable food (fat) intake, in words / Effect on palatable food (sugar) intake, in words / Effect on palatable food (sugar-fat) intake, in words: one-way ANOVA over saline, low and high dose
Text: (§1) Male Sprague-Dawley rats, 250-300 g at the onset of the experiment, were obtained from Taconic Farms (Germantown, N.Y., USA). Rats were housed individually on a 12-h reversed light/dark cycle and given 1 wk to acclimate before diet training began.
(§2) The rats were divided into groups (n=10/group) matched for body weight and assigned to one of the following dietary conditions: (1) Binge Sugar, (2) Binge Fat or (3) Binge Sugar-Fat. All rats received palatable diets and standard rodent chow (LabDiet #5001, PMI Nutrition International, Richmond, Ind., USA; 10% fat, 20% protein, 70% carbohydrate, 3.02 kcal/g) for 12 h/day, starting 4 h after the onset of the dark cycle. Water was available ad libitum.
(§3) All palatable foods were mixed in the laboratory. The Binge Sugar group had access to a 10% (w/v) sucrose solution (Domino® Granulated Pure Cane Sugar, dissolved in tap water, 0.4 kcal/mL), the Binge Fat group had access to a 35% (w/v) fat emulsion (3.1 kcal/mL) and the Binge Sugar-Fat group had access to a 10% (w/v) sugar solution and 35% (w/v) fat emulsion (3.5 kcal/mL). Both emulsions were made with Wesson® Pure Vegetable Oil in tap water and 0.6% (w/v) Emplex, a commercially available emulsifier (American Ingredients Company, Kansas City, Mo., USA). Palatable food intakes were recorded daily. Chow intake was recorded weekly. Body weights were taken at the beginning and end of the 21-day diet period.
(§4) After 21 days on these diets, drug testing began. During testing, diet regimens were maintained. Approximately 3.5 h into the dark cycle, animals were weighed and intraperitoneal (i.p.) injections of drug were given (according to the schedule below). 30 min later (4 h into the dark cycle) palatable food and chow were made available to the rats. For the first 3 days, rats were acclimated to handling and daily vehicle injections (0.9% saline, Hospira, Lake Forest, Ill., USA, i.p. 1 mL/kg). For days 4-16 of drug testing, either vehicle or drug was alternatively administered, starting with drug on day 4. […] Intake of palatable food and chow was measured hourly after injection for 4 h and again at the end of the 12-h access period.
(§5) Palatable food and standard chow intakes following saline injections between days 4-16 were averaged. All data were analyzed using one-way ANOVAs with post hoc Multiple Comparisons, when appropriate. In Tables 4-7, values having the same letter superscript are statistically different from one another.

[2] = test system: Male Sprague-Dawley rats; test: Standard chow intake following drug injections in binge-eating rats (Example 2); details: for Effect on standard chow intake, in words: one-way ANOVA over saline, low and high dose
Text: as §1, §2, §3, §4, §5

[3] = test system: Male Sprague-Dawley rats; test: Total caloric intake following drug injections in binge-eating rats (Example 2); details: for Effect on total caloric intake, in words: one-way ANOVA over saline, low and high dose
Text: as §1, §2, §3, §4, §5

[4] = test system: rats; test: Binge eating rats, palatable food and chow intake (Example 1, FIGS. 1-5); details: drug alone, i.p., figure legends
Procedure: Baclofen (at 1.0 and 1.8 mg/kg, administered i.p.)
Baclofen+naltrexone (mixed low and mixed high)
1. Binge Sugar (10% sucrose solution, w/v)
2. Binge Fat (35% oil emulsion, w/v)
3. Binge Sugar/Fat (10% sucrose, 35% oil emulsion, w/v)
Groups of animals (rats) were maintained on their diets for 3 weeks to establish stable binge eating behavior. After this period of time, the rats were administered three days of daily i.p. injections of saline (to acclimate to the injection procedure), and sugar/chow intake was measured after the first hour of access and then hourly for the next 3 hours, as well as at the end of the 12-h access period. After this three-day period, rats were given baclofen+naloxone, and measurements taken as described above. Other dosage amounts of baclofen and naloxone were tested, as were the effects of these compounds alone (with measurements being performed as described above). Vehicle injections were performed between the various tests in order to allow for suitable clearance of compounds from the animals. […] Thus, the treatment appears ideally suited for food addicts, hedonic overeaters and changes food choice but not appetite.

[5] = Binge Fat group, 1 h, high dose (naltrexone 1.0 mg/kg, baclofen 1.8 mg/kg, or both, i.p.)
[6] = Binge Fat group, 1 h, low dose (naltrexone 0.1 mg/kg, baclofen 1.0 mg/kg, or both, i.p.)
[7] = Binge Fat group, 12 h, high dose (naltrexone 1.0 mg/kg, baclofen 1.8 mg/kg, or both, i.p.)
[8] = Binge Fat group, 12 h, low dose (naltrexone 0.1 mg/kg, baclofen 1.0 mg/kg, or both, i.p.)
[9] = Binge Sugar group, 1 h, high dose (naltrexone 1.0 mg/kg, baclofen 1.8 mg/kg, or both, i.p.)
[10] = Binge Sugar group, 1 h, low dose (naltrexone 0.1 mg/kg, baclofen 1.0 mg/kg, or both, i.p.)
[11] = Binge Sugar group, 12 h, high dose (naltrexone 1.0 mg/kg, baclofen 1.8 mg/kg, or both, i.p.)
[12] = Binge Sugar group, 12 h, low dose (naltrexone 0.1 mg/kg, baclofen 1.0 mg/kg, or both, i.p.)
[13] = Binge Sugar-Fat group, 1 h, high dose (naltrexone 1.0 mg/kg, baclofen 1.8 mg/kg, or both, i.p.)
[14] = Binge Sugar-Fat group, 1 h, low dose (naltrexone 0.1 mg/kg, baclofen 1.0 mg/kg, or both, i.p.)
[15] = Binge Sugar-Fat group, 12 h, high dose (naltrexone 1.0 mg/kg, baclofen 1.8 mg/kg, or both, i.p.)
[16] = Binge Sugar-Fat group, 12 h, low dose (naltrexone 0.1 mg/kg, baclofen 1.0 mg/kg, or both, i.p.)

For O=C1CC[C@@]2(O)[C@H]3Cc4ccc(O)c5c4[C@@]2(CCN3CC2CC2)[C@H]1O5 [Naltrexone, naltrexone hydrochloride], the “1-H Palatable Food Intake” value [1, 5] was 9.9 ± 2.0 kcal, the “Palatable food intake as a percent of intake after saline injections, 1-H Intake (%)” value [1, 5] was 59% and the “Palatable food intake as a percent of intake after saline injections, 1-H Intake (%)” value [1, 6] was 70%. The “Effect on palatable food (fat) intake, in words” value ([1]; Binge Fat group, 1 h) was “no significant effect”, the “12-H Palatable Food Intake” value [1, 7] was 53.3 ± 4.5 kcal and the “Palatable food intake as a percent of intake after saline injections, 12-H Intake (%)” value [1, 7] was 91%. For the same compound, the “12-H Palatable Food Intake” value [1, 8] was 49.9 ± 3.6 kcal, the “Palatable food intake as a percent of intake after saline injections, 12-H Intake (%)” value [1, 8] was 85% and the “Effect on palatable food (fat) intake, in words” value ([1]; Binge Fat group, 12 h) was “no significant effect”. The “1-H Palatable Food Intake (Kcal)” value [1, 9] was 2.6 ± 0.4^a Kcal, the “Palatable food intake as a percent of intake after saline injections, 1-H Intake (%)” value [1, 9] was 92% and the “1-H Palatable Food Intake (Kcal)” value [1, 10] was 4.4 ± 0.7^a Kcal. For the same compound, the “Palatable food intake as a percent of intake after saline injections, 1-H Intake (%)” value [1, 10] was 158%, the “Effect on palatable food (sugar) intake, in words” value ([1]; Binge Sugar group, 1 h) was “significantly decreased” and the “12-H Palatable Food Intake (Kcal)” value [1, 11] was 10.8 ± 1.8^r Kcal. For the same compound, the “Palatable food intake as a percent of intake after saline injections, 12-H Intake (%)” value [1, 11] was 85%, the “12-H Palatable Food Intake (Kcal)” value [1, 12] was 18.7 ± 2.4^r Kcal and the “Palatable food intake as a percent of intake after saline injections, 12-H Intake (%)” value [1, 12] was 92%. The “Effect on palatable food (sugar) intake, in words” value ([1]; Binge Sugar group, 12 h) was “significantly decreased”, the “1-H Palatable Food Intake” value [1, 13] was 17.6 ± 3.5 kcal and the “Palatable food intake as a percent of intake after saline injections, 1-H Intake (%)” value [1, 13] was 75%. For the same compound, the “1-H Palatable Food Intake” value [1, 14] was 17.3 ± 1.7 kcal, the “Palatable food intake as a percent of intake after saline injections, 1-H Intake (%)” value [1, 14] was 74% and the “Effect on palatable food (sugar-fat) intake, in words” value ([1]; Binge Sugar-Fat group, 1 h) was “no effect”. The “12-H Palatable Food Intake” value [1, 15] was 83.3 ± 8.1 kcal, the “Palatable food intake as a percent of intake after saline injections, 12-H Intake (%)” value [1, 15] was 109% and the “12-H Palatable Food Intake” value [1, 16] was 70.6 ± 3.4 kcal. For the same compound, the “Palatable food intake as a percent of intake after saline injections, 12-H Intake (%)” value [1, 16] was 92%, the “Effect on palatable food (sugar-fat) intake, in words” value ([1]; Binge Sugar-Fat group, 12 h) was “no effect” and the “1-H Chow Intake” value [2, 5] was 10.1 ± 1.2 kcal. For the same compound, the “1-H Chow Intake” value [2, 6] was 8.5 ± 1.1 kcal, the “12-H Chow Intake” value [2, 7] was 37.0 ± 3.4 kcal and the “12-H Chow Intake” value [2, 8] was 34.1 ± 4.3 kcal. The “1-H Chow Intake” value [2, 9] was 20.1 ± 1.3 kcal, the “1-H Chow Intake” value [2, 10] was 25.5 ± 3.2 kcal and the “12-H Chow Intake (Kcal)” value [2, 11] was 78.6 ± 4.7^b Kcal. The “12-H Chow Intake (Kcal)” value [2, 12] was 73.7 ± 5.1^a Kcal, the “1-H Chow Intake” value [2, 13] was 7.1 ± 0.9 kcal and the “1-H Chow Intake” value [2, 14] was 6.6 ± 1.0 kcal. For the same compound, the “Effect on standard chow intake, in words” value ([2]; Binge Sugar-Fat group, 1 h) was “no effect”, the “12-H Chow Intake” value [2, 15] was 27.4 ± 2.6 kcal and the “12-H Chow Intake” value [2, 16] was 26.4 ± 1.9 kcal. The “Effect on standard chow intake, in words” value ([2]; Binge Sugar-Fat group, 12 h) was “no effect”, the “Effect on standard chow intake, in words” value ([2]; Fat group, 1 h) was “no effect” and the “Effect on standard chow intake, in words” value ([2]; Fat group, 12 h) was “no effect”. For the same compound, the “Effect on standard chow intake, in words” value ([2]; Sugar group, 1 h) was “no effect”, the “Effect on standard chow intake, in words” value ([2]; Sugar group, 12 h) was “stimulated chow intake” and the “1-H Total Caloric Intake” value [3, 5] was 19.9 ± 3.2 kcal. The “1-H Total Caloric Intake” value [3, 6] was 20.2 ± 3.0 kcal, the “12-H Total Caloric Intake” value [3, 7] was 90.3 ± 8.3 kcal and the “12-H Total Caloric Intake” value [3, 8] was 84.0 ± 7.9 kcal. The “1-H Total Caloric Intake” value [3, 9] was 22.6 ± 1.7 kcal, the “1-H Total Caloric Intake (Kcal)” value [3, 10] was 29.9 ± 3.9^a Kcal and the “12-H Total Caloric Intake” value [3, 11] was 89.4 ± 6.4 kcal. For the same compound, the “12-H Total Caloric Intake” value [3, 12] was 85.4 ± 7.5 kcal, the “1-H Total Caloric Intake” value [3, 13] was 24.8 ± 4.4 kcal and the “1-H Total Caloric Intake” value [3, 14] was 23.9 ± 2.7 kcal. For the same compound, the “12-H Total Caloric Intake” value [3, 15] was 110.7 ± 10.7 kcal, the “12-H Total Caloric Intake” value [3, 16] was 97.0 ± 5.7 kcal and the “Effect on total caloric intake, in words” value ([3]; Fat group, 1 h) was “no effect”. For the same compound, the “Effect on total caloric intake, in words” value ([3]; Fat group, 12 h) was “no effect”, the “Effect on total caloric intake, in words” value ([3]; Sugar group, 1 h) was “significantly increased” and the “Effect on total caloric intake, in words” value ([3]; Sugar group, 12 h) was “differences were no longer evident”. For the same compound, the “Effect on total caloric intake, in words” value ([3]; Sugar-Fat group, 1 h) was “no effect”, the “Effect on total caloric intake, in words” value ([3]; Sugar-Fat group, 12 h) was “no effect” and the “Effect on intake of oil-containing palatable foods” value ([4]; oil containing groups (Binge Fat, Binge Sugar/Fat)) was “trend toward reducing food intake”. The “Effect on binge eating of sugar” value ([4]; sugar-binging rats) was “no effect”.
